Legend:
[1] = target: T1, Carnitine O-palmitoyltransferase 1, liver isoform (Homo sapiens, UniProt P50416); assay: Inhibition of human CPT1A
T1 sequence (P50416 whole entry): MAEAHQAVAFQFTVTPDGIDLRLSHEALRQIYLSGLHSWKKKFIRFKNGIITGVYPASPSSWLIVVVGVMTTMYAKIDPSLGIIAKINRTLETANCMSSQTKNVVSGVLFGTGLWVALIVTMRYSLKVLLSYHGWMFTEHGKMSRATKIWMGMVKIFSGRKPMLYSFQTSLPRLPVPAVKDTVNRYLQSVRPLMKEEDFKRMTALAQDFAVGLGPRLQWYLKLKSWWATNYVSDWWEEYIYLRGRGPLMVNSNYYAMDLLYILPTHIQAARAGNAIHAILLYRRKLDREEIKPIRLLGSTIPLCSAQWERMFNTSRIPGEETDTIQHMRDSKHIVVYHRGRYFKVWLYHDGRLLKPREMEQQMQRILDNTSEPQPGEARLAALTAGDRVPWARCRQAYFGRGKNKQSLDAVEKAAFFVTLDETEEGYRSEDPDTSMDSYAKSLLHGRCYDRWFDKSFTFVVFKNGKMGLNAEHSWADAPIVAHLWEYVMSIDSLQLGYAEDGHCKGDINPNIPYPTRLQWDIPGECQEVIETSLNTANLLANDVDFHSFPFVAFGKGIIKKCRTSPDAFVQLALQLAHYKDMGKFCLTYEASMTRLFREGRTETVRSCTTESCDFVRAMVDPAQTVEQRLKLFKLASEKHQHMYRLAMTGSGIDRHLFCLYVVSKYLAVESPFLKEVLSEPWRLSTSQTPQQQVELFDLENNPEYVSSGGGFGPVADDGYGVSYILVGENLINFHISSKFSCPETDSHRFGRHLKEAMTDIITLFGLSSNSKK

[2] = Inhibition of carnitine palmitoyltransferase in 18 hr fasted rat hepatocytes; format: cell-based; details: hepatocyte
[3] = Inhibition of carnitine palmitoyltransferase in 18 hr fasted rat liver homogenates; format: tissue-based
[4] = target: T2, Carnitine O-palmitoyltransferase 2, mitochondrial (Homo sapiens, UniProt P23786); assay: Inhibition of human CPT2
T2 sequence (P23786 whole entry): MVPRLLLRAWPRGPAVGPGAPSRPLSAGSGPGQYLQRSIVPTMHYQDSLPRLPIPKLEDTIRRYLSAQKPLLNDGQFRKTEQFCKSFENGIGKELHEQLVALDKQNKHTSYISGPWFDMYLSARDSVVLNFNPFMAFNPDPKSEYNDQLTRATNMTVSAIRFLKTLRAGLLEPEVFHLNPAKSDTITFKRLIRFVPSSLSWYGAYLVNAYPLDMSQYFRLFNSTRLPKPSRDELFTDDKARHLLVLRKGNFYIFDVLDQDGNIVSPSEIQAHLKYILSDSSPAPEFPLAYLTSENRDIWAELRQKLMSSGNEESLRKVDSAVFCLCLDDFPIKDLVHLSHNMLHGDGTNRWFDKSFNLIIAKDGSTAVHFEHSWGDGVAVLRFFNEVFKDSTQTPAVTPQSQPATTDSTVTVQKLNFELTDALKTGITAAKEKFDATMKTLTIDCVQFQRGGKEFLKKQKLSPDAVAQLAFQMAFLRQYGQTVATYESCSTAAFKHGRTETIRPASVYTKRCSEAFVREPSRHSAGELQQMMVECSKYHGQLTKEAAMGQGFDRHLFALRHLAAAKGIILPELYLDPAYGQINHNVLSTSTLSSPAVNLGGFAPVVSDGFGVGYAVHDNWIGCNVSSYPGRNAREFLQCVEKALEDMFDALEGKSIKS

[5] = Inhibition of human FAO
[6] = target: T3, Carnitine O-palmitoyltransferase 1, muscle isoform (Homo sapiens, UniProt Q92523); assay: Inhibition of human CPT1B
T3 sequence (Q92523 whole entry): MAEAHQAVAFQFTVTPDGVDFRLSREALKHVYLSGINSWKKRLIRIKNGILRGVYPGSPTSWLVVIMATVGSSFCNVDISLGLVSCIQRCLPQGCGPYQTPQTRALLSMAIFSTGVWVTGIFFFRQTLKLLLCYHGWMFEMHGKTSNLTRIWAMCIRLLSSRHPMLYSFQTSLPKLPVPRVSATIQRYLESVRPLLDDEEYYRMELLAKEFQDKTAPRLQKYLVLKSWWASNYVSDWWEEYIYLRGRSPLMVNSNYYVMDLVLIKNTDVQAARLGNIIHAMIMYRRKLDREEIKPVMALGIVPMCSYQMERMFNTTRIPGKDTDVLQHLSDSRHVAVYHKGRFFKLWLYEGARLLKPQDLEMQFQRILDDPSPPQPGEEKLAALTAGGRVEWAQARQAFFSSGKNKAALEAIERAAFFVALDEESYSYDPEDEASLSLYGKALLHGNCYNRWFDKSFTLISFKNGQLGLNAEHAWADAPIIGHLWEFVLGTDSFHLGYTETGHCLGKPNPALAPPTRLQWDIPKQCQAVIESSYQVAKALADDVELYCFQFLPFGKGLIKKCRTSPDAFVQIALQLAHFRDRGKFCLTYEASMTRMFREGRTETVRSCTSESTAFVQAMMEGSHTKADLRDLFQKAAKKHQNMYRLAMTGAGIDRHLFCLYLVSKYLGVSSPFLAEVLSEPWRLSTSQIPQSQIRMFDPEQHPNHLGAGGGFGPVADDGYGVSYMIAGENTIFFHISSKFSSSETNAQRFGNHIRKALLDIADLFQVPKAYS

[7] = Inhibition of rat FAO
[8] = Inhibition of FAO
[9] = target: Carnitine O-palmitoyltransferase 1, muscle isoform (Rattus norvegicus) (UniProt Q63704); assay: Inhibition of CPT1 in rat cardiac mitochondria using [3H]carnitine by radiometric method
Sequence of Carnitine O-palmitoyltransferase 1, muscle isoform (Rattus norvegicus) (Q63704 whole entry, looked up, canonical isoform): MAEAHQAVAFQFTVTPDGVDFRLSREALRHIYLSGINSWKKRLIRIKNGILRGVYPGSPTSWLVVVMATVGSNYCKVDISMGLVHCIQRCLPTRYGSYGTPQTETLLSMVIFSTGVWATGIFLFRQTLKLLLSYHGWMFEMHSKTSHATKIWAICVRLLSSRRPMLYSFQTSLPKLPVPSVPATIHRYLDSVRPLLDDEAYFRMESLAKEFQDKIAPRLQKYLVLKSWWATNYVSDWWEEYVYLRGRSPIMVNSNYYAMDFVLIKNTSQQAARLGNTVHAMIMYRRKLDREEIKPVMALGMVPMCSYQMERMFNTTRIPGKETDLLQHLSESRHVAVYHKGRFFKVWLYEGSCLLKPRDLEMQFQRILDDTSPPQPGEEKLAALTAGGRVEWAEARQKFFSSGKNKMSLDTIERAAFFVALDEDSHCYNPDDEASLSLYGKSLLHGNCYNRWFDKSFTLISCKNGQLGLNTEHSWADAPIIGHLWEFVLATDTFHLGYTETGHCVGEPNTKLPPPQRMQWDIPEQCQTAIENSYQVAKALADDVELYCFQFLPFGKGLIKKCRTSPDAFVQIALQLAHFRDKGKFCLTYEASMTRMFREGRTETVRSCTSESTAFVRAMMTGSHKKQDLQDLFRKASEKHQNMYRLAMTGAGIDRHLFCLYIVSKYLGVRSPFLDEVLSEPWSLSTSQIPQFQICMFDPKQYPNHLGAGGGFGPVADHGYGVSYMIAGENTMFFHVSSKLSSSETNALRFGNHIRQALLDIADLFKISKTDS

[10] = target: T4, Carnitine O-palmitoyltransferase 2, mitochondrial (Rattus norvegicus, UniProt P18886); assay: Inhibition of CPT2 in rat mitochondria using [3H]carnitine by radiometric method
T4 sequence (P18886 whole entry): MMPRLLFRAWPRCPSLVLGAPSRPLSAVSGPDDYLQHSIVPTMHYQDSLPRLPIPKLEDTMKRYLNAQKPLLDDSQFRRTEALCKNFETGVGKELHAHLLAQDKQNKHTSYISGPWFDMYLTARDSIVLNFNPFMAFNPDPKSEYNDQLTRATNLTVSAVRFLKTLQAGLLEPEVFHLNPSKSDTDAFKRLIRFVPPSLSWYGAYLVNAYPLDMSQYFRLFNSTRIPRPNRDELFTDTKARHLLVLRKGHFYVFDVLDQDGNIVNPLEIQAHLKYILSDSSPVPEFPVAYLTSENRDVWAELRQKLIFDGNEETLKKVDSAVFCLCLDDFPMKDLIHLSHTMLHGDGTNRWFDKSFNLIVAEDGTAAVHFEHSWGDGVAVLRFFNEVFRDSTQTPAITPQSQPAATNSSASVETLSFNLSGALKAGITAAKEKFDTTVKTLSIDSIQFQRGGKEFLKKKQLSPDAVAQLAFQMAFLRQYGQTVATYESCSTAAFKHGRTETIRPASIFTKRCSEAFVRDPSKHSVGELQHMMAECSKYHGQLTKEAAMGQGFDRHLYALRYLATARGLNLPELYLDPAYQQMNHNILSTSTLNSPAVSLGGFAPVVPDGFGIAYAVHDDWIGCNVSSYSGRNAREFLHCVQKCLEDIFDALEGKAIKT

[11] = target: T5, Carnitine O-palmitoyltransferase 1, liver isoform (Rattus norvegicus, UniProt P32198); assay: Inhibition of CPT1 in rat liver mitochondria using [3H]carnitine by radiometric method
T5 sequence (P32198 whole entry): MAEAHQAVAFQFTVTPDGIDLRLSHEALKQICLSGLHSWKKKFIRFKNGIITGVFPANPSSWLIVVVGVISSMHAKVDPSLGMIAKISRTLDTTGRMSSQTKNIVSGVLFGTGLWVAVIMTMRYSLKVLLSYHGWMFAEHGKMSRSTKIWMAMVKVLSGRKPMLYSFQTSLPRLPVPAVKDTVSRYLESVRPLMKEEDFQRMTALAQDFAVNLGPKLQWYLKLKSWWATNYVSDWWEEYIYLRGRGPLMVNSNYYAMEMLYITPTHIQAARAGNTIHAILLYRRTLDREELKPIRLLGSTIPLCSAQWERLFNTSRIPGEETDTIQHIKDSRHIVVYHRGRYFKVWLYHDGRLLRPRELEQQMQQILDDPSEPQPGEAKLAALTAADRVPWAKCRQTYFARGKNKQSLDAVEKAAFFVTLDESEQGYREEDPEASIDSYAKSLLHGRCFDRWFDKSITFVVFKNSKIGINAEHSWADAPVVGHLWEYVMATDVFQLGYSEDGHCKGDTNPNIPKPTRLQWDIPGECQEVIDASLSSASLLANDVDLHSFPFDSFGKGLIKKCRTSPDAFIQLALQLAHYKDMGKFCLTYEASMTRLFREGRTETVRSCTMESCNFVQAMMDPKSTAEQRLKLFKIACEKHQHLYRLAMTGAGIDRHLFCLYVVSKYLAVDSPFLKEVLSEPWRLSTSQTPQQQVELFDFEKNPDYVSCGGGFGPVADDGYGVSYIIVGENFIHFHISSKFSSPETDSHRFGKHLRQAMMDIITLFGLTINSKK

[12] = Inhibition of FAO in hepatocytes; format: cell-based; details: hepatocyte
[13] = target: T3, Carnitine O-palmitoyltransferase 1, muscle isoform; assay: Inhibition of CPT1B in heart mitochondria
[14] = target: T3, Carnitine O-palmitoyltransferase 1, muscle isoform; assay: Inhibition of CPT1B in liver mitochondria
[15] = target: T4, Carnitine O-palmitoyltransferase 2, mitochondrial; assay: Inhibition of rat CPT2
Sus scrofa = assay: Reduction in plasma glucose in 48 hrs fasted pig at 20 mg, iv measured 5 hrs post dose; format: functional; parameters: scale not given: the % may be the effect or the level left
Rattus norvegicus [16] = assay: Reduction in blood 3-OH-butyrate in Wistar rat at 60 mg/kg, iv over 5.5 hrs (reference value: 1 mM); format: functional
Rattus norvegicus [17] = assay: Reduction in glucose carbon recycling in Wistar rat at 60 mg/kg, iv over 5.5 hrs; format: functional; parameters: scale not given: the % may be the effect or the level left
Rattus norvegicus [18] = assay: Reduction in whole body glucose utilization in Wistar rat at 60 mg/kg, iv over 5.5 hrs; format: functional; parameters: scale not given: the % may be the effect or the level left
Rattus norvegicus [19] = assay: Reduction in plasma glucose in Wistar rat at 60 mg/kg, iv over 5.5 hrs; format: functional; parameters: scale not given: the % may be the effect or the level left

Q: With `CCCCCCCCCCCCCCCC(=O)N[C@H](CC(=O)[O-])C[N+](C)(C)C` [PALMITOYLAMINOCARNITINE] as the compound, how does the IC50 [1] read?
A: Its IC50 is 2.67 µM.

Q: And the IC50 [2]?
A: The IC50 was 1.2 µM.

Q: What about the IC50 [3] of the same compound?
A: The IC50 was 1.3 µM.

Q: And the IC50 [4]?
A: Its IC50 is 0.14 µM.

Q: And the IC50 [5]?
A: The IC50 was 2.8 µM.

Q: What about the IC50 [6] of the same compound?
A: The IC50 was 21.7 µM.

Q: And the IC50 [7]?
A: The IC50 was 0.27 µM.

Q: And the IC50 [8]?
A: The IC50 was 0.05 µM.

Q: For `C1CCC(C(CC2CCCCN2)C2CCCCC2)CC1` (stereo not given) [PERHEXILINE], which IC50 [1] is on record?
A: The IC50 was greater than 100 µM.

Q: What about the IC50 [9] of the same compound?
A: The IC50 was 77 µM.

Q: And the IC50 [4]?
A: The IC50 was 72.8 µM.

Q: And the IC50 [10]?
A: The IC50 was 79 µM.

Q: And the IC50 [5]?
A: Its IC50 is 22.4 µM.

Q: And the IC50 [6]?
A: Its IC50 is greater than 100 µM.

Q: What about the IC50 [7] of the same compound?
A: Its IC50 is 21.4 µM.

Q: And the IC50 [11]?
A: Its IC50 is 148 µM.

Q: With `CCCCCCOc1cccc(OCCCCCC(=O)NC2(CC(=O)[O-])CC[N+](C)(C)CC2)c1` as the compound, how does the IC50 [12] read?
A: The IC50 was 19 µM.

Q: With `O=C(O)C(=O)c1ccc(O)cc1` as the compound, how does the IC50 [1] read?
A: Its IC50 is greater than 100 µM.

Q: And the IC50 [13]?
A: The IC50 was 11 µM.

Q: And the IC50 [4]?
A: Its IC50 is greater than 100 µM.

Q: What about the IC50 [5] of the same compound?
A: The IC50 was 33.3 µM.

Q: What about the IC50 [6] of the same compound?
A: The IC50 was 60.3 µM.

Q: What about the IC50 [7] of the same compound?
A: The IC50 was greater than 100 µM.

Q: And the IC50 [14]?
A: The IC50 was 510 µM.

Q: And the IC50 [15]?
A: Its IC50 is greater than 100 µM.

Q: Which results are given for `O=C(O)C1(CCCCCCOc2ccc(Cl)cc2)CO1` (racemic)?
A: Activity (Sus scrofa): 50%; Activity (Rattus norvegicus [16]): 0.03 mM; Activity (Rattus norvegicus [17]): 30%; Activity (Rattus norvegicus [18]): 14%; Activity (Rattus norvegicus [19]): 25%

Source: ChEMBL document CHEMBL2216752, “Carnitine palmitoyltransferase (CPT) modulators: a medicinal chemistry perspective on 35 years of research” (J Med Chem, 2011)
